TGI data for twelve molecules are collected here from PubChem BioAssay (NCI).

Among the test systems are LXFL 529 NSCLC; M19-MEL melanoma; SNB-78 CNS; DMS 114 small cell lung; P388 leukemia; DMS 273 small cell lung; XF 498 CNS; P388/ADR leukemia; SN12K1 renal; HOP-18 NSCLC.
Assay in all cases: NCI tumour cell line growth inhibition, 48 h

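Five concentrations, 48 hours, 96-well plates. TGI denotes the concentration required for complete inhibition of growth.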

On to `O=C1c2ccccc2C(=O)c2c1ccc1c2N=C(c2ccc(F)cc2)CC(c2ccc(Cl)c(Cl)c2)N1` (stereo unspecified), for which the TGI is 30 µM with LXFL 529 NSCLC, 40.4 µM with M19-MEL melanoma, 41.5 µM in the experiment on SNB-78 CNS and 21.7 µM in the experiment on DMS 114 small cell lung.

With `C[C@@H]1C[C@]2(C[C@@H](C)[C@H]3C(C[C@@]4(C)CCC[C@@H]5C6=C[C@H](CCC34C)OC6=CC(=O)OC5(C)C)O2)OC1=O` (stereo partly specified), the TGI in the experiment on P388 leukemia, with DMS 273 small cell lung, in the experiment with XF 498 CNS, in the experiment with P388/ADR leukemia, with SN12K1 renal and in the experiment on HOP-18 NSCLC was above 51.5 µM each time. For the same molecule, the TGI in the experiment with M19-MEL melanoma, with SNB-78 CNS and in the experiment with DMS 114 small cell lung was above 51.5 µM in each case.

With `COc1ccc(C[C@H](N)C(=O)N2C[C@H](CO)C[C@H](n3ccc(=O)[nH]c3=O)C2)cc1`, the TGI with LXFL 529 NSCLC, in the experiment with DMS 273 small cell lung, in the experiment on HOP-18 NSCLC, in the experiment on M19-MEL melanoma and in the experiment on DMS 114 small cell lung was above 100 µM in each case.

As to `COC(=O)c1nc(-c2ccc3c(n2)C(=O)C(N)=C(OC)C3=O)c(N)c(-c2ccc(OC)c(OC)c2O)c1C`, the TGI in the experiment on P388 leukemia was 3.74 µM; in the experiment with DMS 273 small cell lung, 1.46 µM; with XF 498 CNS, 2.85 µM; with P388/ADR leukemia, 3.17 µM; with SN12K1 renal, 3.38 µM; in the experiment with HOP-18 NSCLC, 17.8 µM. Further, the TGI stood at 1.26 µM with M19-MEL melanoma, 8.38 µM in the experiment with SNB-78 CNS and 2.31 µM with DMS 114 small cell lung.

Regarding `CN(C)CCCNc1c2ccccc2nc2cccc([N+](=O)[O-])c12`, the TGI came to 0.0184 µM in the experiment with DMS 273 small cell lung; 0.0147 µM in the experiment with XF 498 CNS; 0.0787 µM in the experiment on M19-MEL melanoma; 0.0601 µM in the experiment on SNB-78 CNS; 0.0385 µM with DMS 114 small cell lung.

Consider `COc1ccc(C[C@H](N)C(=O)N2C[C@H](CO)C[C@H](n3cnc4c(N(C)C)ncnc43)C2)cc1`, for which the TGI with LXFL 529 NSCLC, in the experiment with DMS 273 small cell lung, in the experiment with HOP-18 NSCLC, in the experiment on M19-MEL melanoma and with DMS 114 small cell lung was above 100 µM in each case.

Turning to `CCNC(=O)/C=C/CCC#Cc1ccc(-c2ccc(-c3cccs3)s2)s1`, the TGI with LXFL 529 NSCLC was above 100 µM; in the experiment with DMS 273 small cell lung, above 100 µM; with XF 498 CNS, 7.19 µM; in the experiment with HOP-18 NSCLC it was above 100 µM; in the experiment with M19-MEL melanoma it was above 100 µM; in the experiment on SNB-78 CNS it was above 100 µM. The same molecule came in with a TGI with DMS 114 small cell lung above 100 µM.

Take `COc1cccc2c1C1(O)C2CCCC12OCCCO2` (stereo unspecified): the TGI in the experiment with LXFL 529 NSCLC, in the experiment with DMS 273 small cell lung, in the experiment on HOP-18 NSCLC, with M19-MEL melanoma, with SNB-78 CNS and in the experiment on DMS 114 small cell lung was above 100 µM in each case.

With `CC1CCc2c(sc3ncnc(N/N=C/c4ccc(Cl)c(Cl)c4)c23)C1` (stereo unspecified), the TGI with DMS 273 small cell lung was determined as 39.6 µM; in the experiment with M19-MEL melanoma it was 96.2 µM; in the experiment on DMS 114 small cell lung, 13.3 µM.

For the molecule `CC(=O)NC1=C(C)C(=O)c2c(nc3n2CCC3O)C1=O` (stereo unspecified), the TGI in the experiment on LXFL 529 NSCLC is 41.8 µM; in the experiment on DMS 273 small cell lung, above 100 µM; in the experiment on XF 498 CNS, 38.1 µM; with HOP-18 NSCLC, above 100 µM; with M19-MEL melanoma it was above 57.1 µM; in the experiment with SNB-78 CNS, 64.4 µM. Further, in the experiment on DMS 114 small cell lung, the TGI was 21 µM.

Regarding `CSc1nc(NC2OCC(O)C(O)C2O)c(N)c(=O)n1C` (stereo unspecified), the TGI with P388 leukemia, in the experiment on DMS 273 small cell lung, in the experiment on XF 498 CNS, with P388/ADR leukemia, with SN12K1 renal and in the experiment on HOP-18 NSCLC was above 100 µM each time. In addition, the TGI in the experiment with SNB-78 CNS was above 100 µM.

For the molecule `CC(=O)OCc1cc(=O)n(C)c2c3c4c(cc12)c(C)cc(=O)n4CO3`, the TGI in the experiment with P388 leukemia is 4.99 µM; in the experiment with DMS 273 small cell lung, 3.86 µM; in the experiment on XF 498 CNS, 3.82 µM; in the experiment on P388/ADR leukemia, 3.34 µM; in the experiment with SN12K1 renal, 5.57 µM; in the experiment with HOP-18 NSCLC, 51.5 µM. In addition, the TGI was determined as 4.21 µM in the experiment with M19-MEL melanoma, 14.2 µM with SNB-78 CNS and 6.11 µM in the experiment with DMS 114 small cell lung.
